In ChEMBL document CHEMBL1152991, “Tetracycline resistance in Ureaplasma spp. and Mycoplasma hominis: prevalence in Bordeaux, France, from 1999 to 2002 and description of two tet(M)-positive isolates of M. hominis susceptible to tetracyclines” (2008):
Values after ≈ are worked out from the molar mass of the structure shown.

How the values were obtained:
Assay type in all cases: functional
[1] = system: Metamycoplasma hominis; experiment: Antimicrobial activity against tetracycline-susceptible Mycoplasma hominis isolate 3430 expressing tet(M) gene after 3 passages of drug treatment
[2] = system: Metamycoplasma hominis; experiment: Antimicrobial activity against tetracycline-susceptible Mycoplasma hominis isolate 3430 expressing tet(M) gene after 10 passages of drug treatment
[3] = system: Ureaplasma; experiment: Antimicrobial activity against tetracycline-resistant Ureaplasma sp. isolate overexpressing tet(M) gene
[4] = system: Metamycoplasma hominis; experiment: Antimicrobial activity against tetracycline-susceptible Mycoplasma hominis isolate 3425 expressing tet(M) gene after 20 passages of drug treatment
[5] = system: Metamycoplasma hominis; experiment: Antimicrobial activity against tetracycline-resistant Mycoplasma hominis isolate overexpressing tet(M) gene

Row | SMILES | MIC [1] | MIC [2] | MIC [3] | MIC [4] | MIC [5]
1 | C[C@H]1c2cccc(O)c2C(=O)C2=C(O)[C@]3(O)C(=O)C(C(N)=O)=C(O)[C@@H](N(C)C)[C@@H]3[C@@H](O)[C@@H]21.O [DOXYCYCLINE] | 0.12 µg/mL | 32 µg/mL | > 32 µg/mL | 0.12 µg/mL | 32 µg/mL
2 | CN(C)c1ccc(O)c2c1C[C@H]1C[C@H]3[C@H](N(C)C)C(O)=C(C(N)=O)C(=O)[C@@]3(O)C(O)=C1C2=O [MINOCYCLINE] |  |  | > 32 µg/mL |  | 32 µg/mL (≈ 69.9 µM)
3 | CN(C)[C@@H]1C(O)=C(C(N)=O)C(=O)[C@@]2(O)C(O)=C3C(=O)c4c(O)cccc4[C@@](C)(O)[C@H]3C[C@@H]12 [TETRACYCLINE] |  |  | > 32 µg/mL |  | 32 µg/mL (≈ 72 µM)
